Assay [1] deals with IPC-298 human melanoma cell line that expresses activated NRAS. As to the kind of experiment: IPC-298_P-ERK cell activation assay (phosphorylated ERK, AlphaScreen). Format: cell-based. To be noted: IPC-298 cells, P-ERK activation. The method, then:
B9 is a squamous cell carcinoma cell line expressing activated HRAS that was isolated from a DMBA/TPA-induced mouse model of skin carcinogenesis (Stoler, et al. The Journal of Cell Biology, 1993, 122(5), 1103-17). IPC-298 is a human melanoma cell line that expresses activated NRAS (Aubert, et al. International Journal of Cancer, 1993, 54(5), 784-92). To determine whether compounds induce phosphorylated ERK and MEK, cells are plated in a 96-well dish and treated with an 8-point titration of compound for one hour at 37° C. The media is then removed and the cells are incubated with lysis buffer containing protease and phosphatase inhibitors. Phosphorylated ERK and MEK in the resulting lysates is detected using AlphaScreen™ technology. To detect phosphorylated ERK, cell lysates are incubated with streptavidin-coated donor beads, anti-mouse IgG acceptor beads, a biotinylated anti-ERK1/2 rabbit antibody, and a mouse antibody that recognizes ERK1/2 only when it is phosphorylated on Thr202 and Tyr204. The biotinylated ERK1/2 antibody will bind to both the streptavidin-coated donor beads and to ERK1/2 (regardless of its phosphorylation state), and the phospho-ERK1/2 antibody will bind to the acceptor beads and to ERK1/2 that is phosphorylated at Thr202/Tyr204. Excitation of the beads with laser light at 680 nm produces singlet oxygen, which is rapidly quenched unless the beads are in close proximity. When ERK is phosphorylated, both antibodies can bind the same protein, bringing the donor and acceptor beads into close proximity, producing a signal that can be measured at 580 nm. MEK phosphorylation is detected using a similar approach, only with antibodies directed against total MEK1/2 and MEK1/2 that is phosphorylated at Ser217 and Ser221.

For the next assay, the target named is B-Raf V600E (Homo sapiens (Human), UniProt P15056, V600E). Briefly: B-Raf V600E kinase biochemical activity assay (AlphaScreen, biotin-MEK1 substrate). To be noted: 100 μM ATP. In a few lines: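 IC50 was derived from AlphaScreen signal (anti-phospho-MEK1/2 antibody with streptavidin donor and Protein A acceptor beads, 3 h) across 8 compound concentrations. The kinase step ran 45 min at room temperature: 0.1 ng B-Raf V600E, 100 nM biotin-MEK1, 100 μM final ATP, pH 7.0 HEPES with MgCl2/MnCl2.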
B-Raf V600E, sequence (P15056 whole entry V600E): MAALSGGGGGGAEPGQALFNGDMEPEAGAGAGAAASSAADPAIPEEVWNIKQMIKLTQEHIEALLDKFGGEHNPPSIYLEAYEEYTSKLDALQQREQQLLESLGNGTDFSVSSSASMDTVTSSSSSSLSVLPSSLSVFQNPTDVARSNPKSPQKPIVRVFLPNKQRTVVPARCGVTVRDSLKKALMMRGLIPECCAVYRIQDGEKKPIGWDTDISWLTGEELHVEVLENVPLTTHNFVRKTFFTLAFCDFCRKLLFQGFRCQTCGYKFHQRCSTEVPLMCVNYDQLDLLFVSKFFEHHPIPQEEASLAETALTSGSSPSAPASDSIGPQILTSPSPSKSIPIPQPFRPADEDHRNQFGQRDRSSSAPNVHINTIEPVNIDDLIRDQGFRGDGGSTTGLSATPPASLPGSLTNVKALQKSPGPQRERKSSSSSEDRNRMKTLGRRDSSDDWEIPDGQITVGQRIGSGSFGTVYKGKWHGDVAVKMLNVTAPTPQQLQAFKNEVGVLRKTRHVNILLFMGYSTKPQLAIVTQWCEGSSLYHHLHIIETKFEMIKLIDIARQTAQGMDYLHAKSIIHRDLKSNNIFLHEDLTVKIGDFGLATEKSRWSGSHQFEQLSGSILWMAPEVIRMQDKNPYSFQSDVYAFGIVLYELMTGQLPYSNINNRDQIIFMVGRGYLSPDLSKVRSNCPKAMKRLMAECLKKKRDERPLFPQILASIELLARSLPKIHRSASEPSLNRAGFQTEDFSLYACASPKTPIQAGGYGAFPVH
A general note: Alpha assays give light when donor and acceptor beads are brought close together.

Assay [2] deals with COLO205 colon adenocarcinoma cells (B-Raf V600E mutation). As to the kind of experiment: COLO205 cell growth inhibition (ATPlite). It counts as cell-based. The note with it: Homo sapiens, COLO 205, 72 h, 3 days. In outline: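 Cells treated for 3 days at 37 °C, 5% CO2 with an 8-point 1:3 dilution series, top final concentration 10 μM, DMSO control. ATPlite luminescence used as a measure of cell number; IC50 from reading versus concentration.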
Background: ATP-based viability assays read luminescence as a measure of living cells.

By EC50 is commonly meant the concentration needed to bring the measured effect to its halfway point. As for `COc1ncc(-c2cnc3[nH]cc(C(=O)c4c(F)ccc(NS(=O)(=O)c5cc(F)ccc5F)c4F)c3c2)cn1`, in assay [1] (compounds known in the art), the EC50 was less than 1 µM. For `COc1ncc(-c2cnc3[nH]cc(C(=O)c4c(F)ccc(NS(=O)(=O)c5ccccc5F)c4F)c3c2)cn1`, in assay [1] (compounds known in the art), the EC50 was less than 0.5 µM. On the same count and under the same terms, under `CCCS(=O)(=O)Nc1ccc(F)c(C(=O)c2c[nH]c3ncc(Cl)cc23)c1F` stands less than 0.5 µM. The term IC50 denotes the concentration that inhibits the measured activity by half. A lower IC50 goes with greater potency in that assay. In assay [1] (1 h, compound for one hour), `O=C(c1c(F)ccc(NS(=O)(=O)N2CCCC2)c1F)c1c[nH]c2ncc(F)c(I)c12` [Compound P-0015, N-[2,4-difluoro-3-(5-fluoro-4-iodo-1H-pyrrolo[2,3-b]pyridine-3-carbonyl)phenyl]pyrrolidine-1-sulfonamide] registered an EC50 greater than 10 µM. Besides, the concentration for half-maximal inhibition (IC50) against B-Raf V600E is less than 0.1 µM. Taken in the same sequence, the figures for `O=C(c1c(F)ccc(NS(=O)(=O)N2CCCC2)c1F)c1c[nH]c2ncc(-c3ccc(Cl)cc3)cc12` [Compound P-0021] were greater than 10 µM and less than 0.1 µM. On to `CN(C)c1ncc(-c2cnc3[nH]cc(C(=O)c4c(F)ccc(NS(=O)(=O)N5CCCC5)c4F)c3c2)cn1` [Compound P-0022], for which the EC50 in assay [1] (1 h, compound for one hour) was greater than 10 µM. The same measure, in the same setting: for `O=C(c1c(F)ccc(NS(=O)(=O)N2CCCC2)c1F)c1c[nH]c2ncc(I)cc12` [Compound P-0024] the value was greater than 10 µM. Same read-out and setting: for `CNS(=O)(=O)Nc1cccc(C(=O)c2c[nH]c3ncc(-c4cnc(OC)nc4)cc23)c1F` [Compound P-0026] the value was greater than 10 µM; for `Cc1ccc(-c2cnc3[nH]cc(C(=O)c4cccc(NS(=O)(=O)N(C)C)c4F)c3c2)cn1` [Compound P-0029], greater than 10 µM; for `CN(C)c1ccc(-c2cnc3[nH]cc(C(=O)c4cccc(NS(=O)(=O)N(C)C)c4F)c3c2)cn1` [Compound P-0030], greater than 10 µM. The same measure, in the same setting: under `CCN(C)S(=O)(=O)Nc1cccc(C(=O)c2c[nH]c3ncc(-c4ccc(C#N)cc4)cc23)c1F` [Compound P-0031] stands greater than 10 µM; under `CCN(C)S(=O)(=O)Nc1cccc(C(=O)c2c[nH]c3ncc(-c4cccnc4)cc23)c1F` [Compound P-0032], greater than 10 µM. In assay [1] (1 h, compound for one hour), `CCN(C)S(=O)(=O)Nc1cccc(C(=O)c2c[nH]c3ncc(-c4ccccc4)cc23)c1F` [Compound P-0036, 3-[3-[[ethyl(methyl)sulfamoyl]amino]-2-fluoro-benzoyl]-5-phenyl-1H-pyrrolo[2,3-b]pyridine] had an EC50 greater than 10 µM. Further, the IC50 at B-Raf V600E was less than 0.1 µM.

`CN(C)S(=O)(=O)Nc1cccc(C(=O)c2c[nH]c3ncc(-c4ccccc4)cc23)c1F` [Compound P-0037, 3-[3-(dimethylsulfamoylamino)-2-fluoro-benzoyl]-5-phenyl-1H-pyrrolo[2,3-b]pyridine] displayed an EC50 in assay [1] (1 h, compound for one hour) greater than 10 µM. The compound also registered an IC50 against B-Raf V600E of less than 0.1 µM. For `COc1ncc(-c2cnc3[nH]cc(C(=O)c4cccc(NS(=O)(=O)N5CCC(OCc6ccccc6)C5)c4F)c3c2)cn1` (stereo not shown) [Compound P-0041, 3-benzyloxy-N-[2-fluoro-3-[5-(2-methoxypyrimidin-5-yl)-1H-pyrrolo[2,3-b]pyridine-3-carbonyl]phenyl]pyrrolidine-1-sulfonamide] the same measures were greater than 10 µM and greater than 0.1 µM. As to `CN(C)c1ccc(-c2cnc3[nH]cc(C(=O)c4cccc(NS(=O)(=O)N5CCCC5)c4F)c3c2)cn1` [Compound P-0046, N-[3-[5-[6-(dimethylamino)-3-pyridyl]-1H-pyrrolo[2,3-b]pyridine-3-carbonyl]-2-fluoro-phenyl]pyrrolidine-1-sulfonamide], the EC50 in assay [1] (1 h, compound for one hour) is greater than 10 µM. The compound also registered an IC50 against B-Raf V600E of less than 0.1 µM. With `CCN(C)S(=O)(=O)Nc1cccc(C(=O)c2c[nH]c3ncc(-c4ccc(C5(C#N)CC5)cc4)cc23)c1F` [Compound P-0061, 5-[4-(1-cyanocyclopropyl)phenyl]-3-[3-[[ethyl(methyl)sulfamoyl]amino]-2-fluoro-benzoyl]-1H-pyrrolo[2,3-b]pyridine], the EC50 in assay [1] (1 h, compound for one hour) was greater than 10 µM. The same compound displayed an IC50 against B-Raf V600E of less than 0.1 µM. Taken in the same sequence, the figures for `O=C(c1c(F)ccc(NS(=O)(=O)N2CCC(F)(F)C2)c1F)c1c[nH]c2ncc(-c3cnc(C4CC4)nc3)cc12` [Compound P-0288, N-[3-[5-(2-cyclopropylpyrimidin-5-yl)-1H-pyrrolo[2,3-b]pyridine-3-carbonyl]-2,4-difluoro-phenyl]-3,3-difluoro-pyrrolidine-1-sulfonamide] were greater than 2 µM and less than 0.1 µM. `CN1CCN(c2cc(-c3cnc4[nH]cc(C(=O)c5cccc(NS(=O)(=O)N6CCCC6)c5F)c4c3)ncn2)CC1` [Compound P-0322, N-[2-fluoro-3-[5-[6-(4-methylpiperazin-1-yl)pyrimidin-4-yl]-1H-pyrrolo[2,3-b]pyridine-3-carbonyl]phenyl]pyrrolidine-1-sulfonamide]: the IC50 in assay [2] was less than 1 µM; on B-Raf V600E, less than 0.1 µM. For `CN1CCN(c2cccc(-c3cnc4[nH]cc(C(=O)c5cccc(NS(=O)(=O)N6CCCC6)c5F)c4c3)n2)CC1` [Compound P-0324, N-[2-fluoro-3-[5-[6-(4-methylpiperazin-1-yl)-2-pyridyl]-1H-pyrrolo[2,3-b]pyridine-3-carbonyl]phenyl]pyrrolidine-1-sulfonamide] the same measures were less than 1 µM and less than 0.1 µM. In the case of `COc1ccnc(-c2cnc3[nH]cc(C(=O)c4cccc(NS(=O)(=O)N5CCCC5)c4F)c3c2)n1` [Compound P-0325, N-[2-fluoro-3-[5-(4-methoxypyrimidin-2-yl)-1H-pyrrolo[2,3-b]pyridine-3-carbonyl]phenyl]pyrrolidine-1-sulfonamide], the IC50 was greater than 1 µM in assay [2] and less than 0.1 µM against B-Raf V600E. For `Cc1ccnc(-c2cnc3[nH]cc(C(=O)c4cccc(NS(=O)(=O)N5CCCC5)c4F)c3c2)n1` [Compound P-0326, N-[2-fluoro-3-[5-(4-methylpyrimidin-2-yl)-1H-pyrrolo[2,3-b]pyridine-3-carbonyl]phenyl]pyrrolidine-1-sulfonamide] the same measures were greater than 1 µM and less than 0.1 µM. Turning to `O=C(c1cccc(NS(=O)(=O)N2CC[C@@H](F)C2)c1F)c1c[nH]c2ncc(-c3cnc(C4CC4)nc3)cc12` [Compound P-0327, (3R)—N-[3-[5-(2-cyclopropylpyrimidin-5-yl)-1H-pyrrolo[2,3-b]pyridine-3-carbonyl]-2-fluoro-phenyl]-3-fluoro-pyrrolidine-1-sulfonamide], the values for the IC50 (in assay [2]; against B-Raf V600E) were less than 1 µM and less than 0.1 µM, respectively. In the case of `CCNS(=O)(=O)Nc1ccc(F)c(C(=O)c2c[nH]c3ncc(-c4cnc(C5CC5)nc4)cc23)c1F` [Compound P-0335, [5-(2-cyclopropylpyrimidin-5-yl)-1H-pyrrolo[2,3-b]pyridin-3-yl]-[3-(ethylsulfamoylamino)-2,6-difluoro-phenyl]methanone], the figures for the IC50 (in assay [2]; against B-Raf V600E) were less than 1 µM and less than 0.1 µM, respectively. With `CCC(C)S(=O)(=O)Nc1ccc(F)c(C(=O)c2c[nH]c3ncc(-c4ccc(Cl)cc4)cc23)c1F` (stereo not shown) [Compound P-0337, N-[3-[5-(4-chlorophenyl)-1H-pyrrolo[2,3-b]pyridine-3-carbonyl]-2,4-difluoro-phenyl]butane-2-sulfonamide], the IC50 in assay [2] was greater than 1 µM; against B-Raf V600E it was less than 0.1 µM.

Regarding `O=C(c1c(F)ccc(NS(=O)(=O)N2CC[C@@H](F)C2)c1F)c1c[nH]c2ncc(-c3cnc(C4CC4)nc3)cc12` [Compound P-0338, (3R)—N-[3-[5-(2-cyclopropylpyrimidin-5-yl)-1H-pyrrolo[2,3-b]pyridine-3-carbonyl]-2,4-difluoro-phenyl]-3-fluoro-pyrrolidine-1-sulfonamide], the figures for the IC50 (in assay [2]; at B-Raf V600E) were less than 1 µM and less than 0.1 µM, respectively. For `O=C(c1c(F)ccc(NS(=O)(=O)N2CCC(F)C2)c1F)c1c[nH]c2ncc(-c3cnc(C4CC4)nc3)cc12` (stereo not shown) [Compound P-0339, N-[3-[5-(2-cyclopropylpyrimidin-5-yl)-1H-pyrrolo[2,3-b]pyridine-3-carbonyl]-2,4-difluoro-phenyl]-3-fluoro-pyrrolidine-1-sulfonamide] the same measures were less than 1 µM and less than 0.1 µM.

`CN(CC(F)(F)F)S(=O)(=O)Nc1ccc(F)c(C(=O)c2c[nH]c3ncc(-c4cnc(C5CC5)nc4)cc23)c1F` [Compound P-0340, 5-(2-cyclopropylpyrimidin-5-yl)-3-[2,6-difluoro-3-[[methyl(2,2,2-trifluoroethyl)sulfamoyl]amino]benzoyl]-1H-pyrrolo[2,3-b]pyridine]: the IC50 in assay [2] is less than 1 µM; at B-Raf V600E, less than 0.1 µM.

(Values after patent US20230277534A1 (Plexxikon Inc., priority 2011, published 2023).)
